This test has as its target canine TRPM8 (Canis lupus familiaris, UniProt Q1A7N1). Kind of test: In Vitro Canine TRPM8 Functional Assay (Ca2+ fluorescence, icilin activation). The format is cell-based. The following applies: for IC50: read-out: IC50; for inhibition at 0.5 µM: compound at 0.5 μM, read-out: % Inh @ 0.5. Put shortly: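 Eight-point dose-response curves, each point averaging quadruplicate wells, gave EC50 or IC50. Canine TRPM8-expressing HEK293 cells, dye-loaded (Calcium 3), were pre-exposed 5 min to compound, then challenged with icilin at roughly EC80; intracellular Ca2+ read by FLIPR or FDSS fluorescence.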

[1] abbreviates: HEK293 cells stably expressing canine TRPM8, icilin activation, eight-point dose-response.
The mark [2] stands for this setting: compound at 0.2 μM, canine TRPM8, icilin activation, read-out: % Inh @ 0.2.
Setting [3] is: compound at 0.2 μM, canine TRPM8, icilin activation.
The mark [4] stands for this setting: canine TRPM8, icilin activation.

The record followed here is patent US9434711B2 (Janssen Pharmaceutica, NV, priority 2007, dated 2016).

Each structure is given as a SMILES string. Like-named read-outs stand apart in the source and are kept apart here.

Chain of canine TRPM8 (Q1A7N1 1-1104): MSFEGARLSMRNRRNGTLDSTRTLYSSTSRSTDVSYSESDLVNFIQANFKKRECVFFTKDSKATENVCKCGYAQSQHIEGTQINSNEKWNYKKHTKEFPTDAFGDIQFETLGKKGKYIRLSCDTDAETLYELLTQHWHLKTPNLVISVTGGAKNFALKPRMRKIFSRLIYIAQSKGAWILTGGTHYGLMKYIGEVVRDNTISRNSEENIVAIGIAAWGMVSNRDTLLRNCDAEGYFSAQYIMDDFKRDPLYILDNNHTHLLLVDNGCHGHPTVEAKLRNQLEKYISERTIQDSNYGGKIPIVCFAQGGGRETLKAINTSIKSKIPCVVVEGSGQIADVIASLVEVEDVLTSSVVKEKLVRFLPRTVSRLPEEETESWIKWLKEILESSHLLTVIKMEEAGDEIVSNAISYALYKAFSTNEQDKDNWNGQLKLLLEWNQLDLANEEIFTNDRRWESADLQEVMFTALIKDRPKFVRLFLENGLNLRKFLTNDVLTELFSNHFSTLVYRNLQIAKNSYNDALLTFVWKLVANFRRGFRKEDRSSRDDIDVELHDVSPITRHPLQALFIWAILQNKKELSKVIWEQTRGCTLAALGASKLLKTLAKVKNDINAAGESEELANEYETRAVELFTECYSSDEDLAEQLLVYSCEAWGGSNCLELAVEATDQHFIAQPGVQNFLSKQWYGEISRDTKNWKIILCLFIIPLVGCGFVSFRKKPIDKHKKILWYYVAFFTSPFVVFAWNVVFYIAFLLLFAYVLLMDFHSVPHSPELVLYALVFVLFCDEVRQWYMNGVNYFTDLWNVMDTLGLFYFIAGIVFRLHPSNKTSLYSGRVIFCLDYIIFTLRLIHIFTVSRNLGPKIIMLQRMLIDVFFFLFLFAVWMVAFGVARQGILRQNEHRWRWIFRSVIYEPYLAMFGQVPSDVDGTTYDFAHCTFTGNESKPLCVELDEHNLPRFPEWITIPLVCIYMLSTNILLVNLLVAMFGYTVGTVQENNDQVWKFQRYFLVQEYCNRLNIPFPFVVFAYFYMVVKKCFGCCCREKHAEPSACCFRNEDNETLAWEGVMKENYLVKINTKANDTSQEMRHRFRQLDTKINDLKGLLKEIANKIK

Turning to `Cc1c(N(Cc2ccc(F)c(C(F)(F)F)c2)S(=O)(=O)c2cn(C)nc2C(F)(F)F)sc2ccccc12` [Compound 328, N-(3-Methyl-benzo[b]thiophen-2-yl)-N-(4-fluoro-3-trifluoromethyl-benzyl)-1-methyl-3-trifluoromethyl-1H-pyrazol-4-ylsulfonamide], the IC50 (commonly the concentration needed to halve the response being measured) under setting [1] was 35 nM. Moreover, under setting [2], the inhibition at 0.2 µM turned out to be 94%.
Regarding `CN(C)S(=O)(=O)c1cccc(S(=O)(=O)N(Cc2ccc(F)c(C(F)(F)F)c2)c2cc3ccccc3s2)c1` [Compound 462, N-(Benzo[b]thiophen-2-yl)-N-(4-fluoro-3-trifluoromethyl-benzyl)-3-N′,N′-dimethylsulfamoyl-benzenesulfonamide], the “% Inh @ 0.2 (μM)” value under setting [3] is listed as 22%.
As for `O=C(O)c1ccc(S(=O)(=O)N(C[C@@H]2C[C@@H]3CC[C@H]2C3)c2sc3ccccc3c2Br)cc1` [Compound 439, RS,RS—N-(Bicyclo[2.2.1]heptan-2-ylmethyl)-N-(3-bromobenzo[b]thiophen-2-yl)-4-carboxy-benzenesulfonamide], the IC50 under setting [1] was 2 nM. The “% Inh @ 0.2 (μM)” value under setting [3] was 86%.
Turning to `CNC1=C(N(Cc2ccc(F)c(C(F)(F)F)c2)S(=O)(=O)c2ccccc2)S(=O)(=O)c2ccccc21` [Compound 648, N-(4-Fluoro-3-trifluoromethyl-benzyl)-N-(3-methylamino-1,1-dioxo-1H-1λ^6-benzo[b]thiophen-2-yl)-benzenesulfonamide], under setting [2], the inhibition at 0.2 µM was determined as 62%.
As to `CCS(=O)(=O)N(Cc1ccnc(F)c1)c1sc2ccccc2c1C(C)=O` [Compound 848, N-(3-Acetyl-benzo[b]thiophen-2-yl)-N-(2-fluoro-pyridin-4-ylmethyl)-ethansulfonamide], the inhibition at 0.2 µM (0.2 μM compound, HEK293 cells stably expressing canine TRPM8, icilin activation, read-out: % Inh @ 0.2) is 68%.
Regarding `COC(=O)c1cccc(CN(c2cc3ccccc3s2)S(=O)(=O)c2cccnc2)c1` [Compound 379, N-(Benzo[b]thiophen-2-yl)-N-(3-carbomethoxy-benzyl)-pyridin-3-ylsulfonamide], the inhibition at 0.2 µM under setting [2] came out at 54%.
Turning to `Cc1nnc(-c2cccc(S(=O)(=O)N(Cc3ccc(F)c(C(F)(F)F)c3)c3sc4ccccc4c3C)c2)o1` [Compound 333, N-(3-Methyl-benzo[b]thiophen-2-yl)-N-(4-fluoro-3-trifluoromethyl-benzyl)-3-(5-methyl-[1,3,4]oxadiazol-2-yl)-benzenesulfonamide], the IC50 under setting [1] turned out to be 9 nM. Moreover, the inhibition at 0.2 µM under setting [2] stood at 101%.
For `CCS(=O)(=O)N(Cc1ccc(OC(F)(F)F)cc1)c1sc2ccccc2c1C` [Compound 42, N-(3-Methyl-benzo[b]thiophen-2-yl)-N-(4-trifluoromethoxy-benzyl)-ethanesulfonamide], the IC50 under setting [1] is 10.6 nM. Also, the inhibition at 0.5 µM under setting [4] was found to be 100%.
On to `O=S(=O)(c1ccsc1)N(Cc1ccc(F)c(C(F)(F)F)c1)c1sc2ccccc2c1Br` [Compound 186, N-(3-Bromo-benzo[b]thiophen-2-yl)-N-(4-fluoro-3-trifluoromethyl-benzyl)-thien-3-yl-sulfonamide], for which the IC50 under setting [1] was determined as 3.7 nM. Further, under setting [2], the inhibition at 0.2 µM was 103%.
Take `Cc1c(N(CCCC(F)(F)F)S(=O)(=O)c2ccccc2)sc2ccccc12` [Compound 616, N-(3-Methyl-benzo[b]thiophen-2-yl)-N-(4,4,4-trifluoro-butyl)-benzenesulfonamide]: the IC50 under setting [1] turned out to be 12.8 nM. Further, under setting [2], the inhibition at 0.2 µM amounted to 101%.
For the molecule `Cc1c(N(Cc2ccc(F)c(C(F)(F)F)c2)S(=O)(=O)CCBr)sc2ccccc12` [Compound 797, N-(4-Fluoro-3-trifluoromethyl-benzyl)-N-(3-methyl-benzo[b]thiophen-2-yl)-2-bromo-ethane-1-sulfonamide], the inhibition at 0.2 µM (HEK293, read-out: % Inh @ 0.2 (μM)) was determined as 102%. The IC50 (HEK293 cells stably expressing canine TRPM8, icilin activation, average of two or more determinations) was 4.8 nM.
Turning to `CC(C)(O)c1c(N(Cc2ccc(F)c(C(F)(F)F)c2)S(=O)(=O)c2ccccc2)sc2ccccc12` [Compound 316, N-(4-Fluoro-3-trifluoromethyl-benzyl)-N-[3-(1-hydroxy-1-methyl-ethyl)-benzo[b]thiophen-2-yl]-benzenesulfonamide], the IC50 under setting [1] worked out at 10 nM. Under setting [2], the inhibition at 0.2 µM came to 101%.
For `CS(=O)(=O)Nc1ccc(S(=O)(=O)N(CCC2CC2)c2sc3ccccc3c2Cl)cc1` [Compound 716, N-(3-Chloro-benzo[b]thiophen-2-yl)-N-(2-cyclopropyl-ethyl)-4-methanesulfonylamino-benzenesulfonamide] the same measures were 9 nM and 101%.
For `CS(=O)(=O)Nc1ccc(S(=O)(=O)N(CCC(F)(F)F)c2cc3ccccc3s2)cc1` [Compound 507, N-(Benzo[b]thiophen-2-yl)-4-methanesulfonylamino-N-(3,3,3-trifluoro-propyl)-benzenesulfonamide] the same measures were 34 nM and 92%.
For `CC(=O)c1c(N(Cc2ccc(F)c(C(F)(F)F)c2)S(=O)(=O)c2ccccc2)sc2ccccc12` [Compound 314, N-(3-Acetyl-benzo[b]thiophen-2-yl)-N-(4-fluoro-3-trifluoromethyl-benzyl)-benzenesulfonamide] the same measures were 10 nM and 102%.
`CCCCN(c1cc2ccccc2s1)S(=O)(=O)c1ccc(C(N)=NC(=O)CO)cc1` [Compound 472, N-(Benzo[b]thiophen-2-yl)-N-(butyl)-4-N-hydroxyacetyl-benzamidine sulfonamide]: under setting [1], the IC50 is 40 nM. Further, the “% Inh @ 0.2 (μM)” value under setting [3] is given as 88%.
Regarding `Cc1c(N(Cc2ccc(F)c(C(F)(F)F)c2)S(=O)(=O)CCO)sc2ccccc12` [Compound 793, N-(4-Fluoro-3-trifluoromethyl-benzyl)-N-(3-methyl-benzo[b]thiophen-2-yl)-2-hydroxy-ethanesulfonamide], under setting [1], the IC50 turned out to be 15.5 nM. Further, the inhibition at 0.2 µM under setting [2] came out at 102%.
Turning to `Cc1c(N(Cc2ccc(F)c(C(F)(F)F)c2)S(=O)(=O)C(F)(F)F)sc2ccccc12` [Compound 664, C,C,C-Trifluoro-N-(4-fluoro-3-trifluoromethyl-benzyl)-N-(3-methyl-benzo[b]thiophen-2-yl)-methanesulfonamide], under setting [2], the inhibition at 0.2 µM was 53.1%.
With `CS(=O)(=O)Nc1cccc(S(=O)(=O)N(CCC(F)(F)F)c2sc3ccccc3c2Br)c1` [Compound 715, N-(3-Bromo-benzo[b]thiophen-2-yl)-3-methanesulfonylamino-N-(3,3,3-trifluoro-propyl)-benzenesulfonamide], under setting [1], the IC50 came out at 24 nM. Under setting [2], the inhibition at 0.2 µM was determined as 101%.
For `Cc1c(N(Cc2ccc(OC(F)(F)F)cc2)S(=O)(=O)c2ccsc2)sc2ccccc12` [Compound 16, N-(3-Methyl-benzo[b]thiophen-2-yl)-N-(4-trifluoromethoxy-benzyl)-thiophene-3-sulfonamide], the IC50 under setting [1] stood at 6 nM. For the same molecule, the inhibition at 0.5 µM under setting [4] was 99%.
On to `CCCNCc1c(N(Cc2ccc(F)c(C(F)(F)F)c2)S(=O)(=O)CC)sc2ccccc12` [Compound 348, N-(4-Fluoro-3-trifluoromethyl-benzyl)-N-(3-propylaminomethyl-benzo[b]thiophen-2-yl)-ethanesulfonamide], for which, under setting [2], the inhibition at 0.2 µM amounted to 60%.
For `COc1cccc2c(Cl)c(N(Cc3ccc(F)c(F)c3)S(=O)(=O)c3ccccc3)sc12` [Compound 143, N-(3-Chloro-7-methoxy-benzo[b]thiophen-2-yl)-N-(3,4-difluoro-benzyl)-benzenesulfonamide], under setting [4], the inhibition at 0.5 µM was found to be 48%.
As to `O=c1[nH]c(-c2ccc(S(=O)(=O)N(CCC(F)(F)F)c3sc4ccccc4c3Br)cc2)ns1` [Compound 708, N-(3-Bromo-benzo[b]thiophen-2-yl)-N-(3,3,3-trifluoro-propyl)-4-(5-oxo-4,5-dihydro-[1,2,4]thiadiazol-3-yl)-benzenesulfonamide], under setting [1], the IC50 is 13 nM. The inhibition at 0.2 µM under setting [2] is 102%.
With `CCCCN(c1cc2ccccc2s1)S(=O)(=O)NC` [Compound 532, N-(Benzo[b]thiophen-2-yl)-N-(butyl)-N′-methyl-sulfamide], under setting [2], the inhibition at 0.2 µM is 19%.
As to `CCCCN(c1sc2ccccc2c1C(C)=O)S(=O)(=O)CC` [Compound 121, N-(3-Acetyl-benzo[b]thiophen-2-yl)-N-(butyl)-ethanesulfonamide], the concentration for half-maximal inhibition (IC50) under setting [1] came to 35 nM. The inhibition at 0.2 µM under setting [2] is 86%.
In the case of `CC1=C(N(CCCCC(F)(F)F)S(=O)(=O)c2ccc(C(=O)O)cc2)S(=O)(=O)c2ccccc21` [Compound 633, N-(3-Methyl-1,1-dioxo-benzo[b]thiophen-2-yl)-N-(5,5,5-trifluoro-pentyl)-4-carboxy-benzenesulfonamide], under setting [2], the inhibition at 0.2 µM was determined as 17%.
As for `O=C(Nc1ccc(S(=O)(=O)N(Cc2ccc(F)c(C(F)(F)F)c2)c2sc3ccccc3c2Br)cc1)C(F)(F)F` [Compound 695, N-(3-Bromo-benzo[b]thiophen-2-yl)-N-(4-fluoro-3-trifluoromethyl-benzyl)-4-trifluoroacetamido-benzenesulfonamide], under setting [1], the half-inhibitory concentration (IC50) came to 17 nM. The inhibition at 0.2 µM under setting [2] was 101%.
Take `O=C(O)c1cccc(S(=O)(=O)N(Cc2ccc(F)c(C(F)(F)F)c2)c2sc3ccccc3c2Br)c1` [Compound 293, N-(3-Bromo-benzo[b]thiophen-2-yl)-N-(4-fluoro-3-trifluoromethyl-benzyl)-3-carboxy-benzenesulfonamide]: under setting [1], the IC50 was determined as 7.8 nM. Also, under setting [2], the inhibition at 0.2 µM stood at 101%. The inhibition at 0.5 µM under setting [4] worked out at 101%.
On to `O=c1[nH]c(-c2ccc(S(=O)(=O)N(CCCCC(F)(F)F)c3cc4ccccc4s3)cc2)ns1` [Compound 687, N-(Benzo[b]thiophen-2-yl)-N-(5,5,5-trifluoro-pentyl)-4-(5-oxo-4,5-dihydro-[1,2,4]thiadiazol-3-yl)-benzenesulfonamide], for which, under setting [1], the IC50 was 56.9 nM. Further, the inhibition at 0.2 µM under setting [2] came out at 74.5%.
